# Measurements published in patent US6979664B1, “Composition for accelerating seed germination and plant growth” (Bios Agriculture Inc., priority 1998, dated 2005).
# Values joined by “and” are separate entries in the source; they are usually repeats but may differ in a detail not shown here. Equal entries are not always repeated.
# Experiments:
# Type in all cases: in vivo
# potato minitubers [1] = test: sprouting and multiple sprouting of minitubers cold-stored 0, 2 or 8 wk; settings: for Sprouting (number of sprouted tubers): GA3 500 mg l^−1 / 100% signal solution / Bromoethane 0.2 ml l^−1; for number of tubers with multiple sprouts: six tubers per treatment, doses as title
# Description: (§1) Microtubers (200–500 mg) cold-stored for 8 wk and minitubers (20–35 g) cold-stored for 0, 2, or 8 wk were used for these experiments. BE (0.2 ml l^−1) and mechanical injury (cutting in half, microwaving at full power for 10 sec) were compared with GA3 (500 mgl^−1), 100% signal solution, water soaking, and control treatments. Six microtubers or minitubers were used per treatment. Observations were made at 1, 2, 3, and 4 wk intervals and the number of sprouted tubers were counted. The evaluation period was extended because tubers with little or no cold storage treatment took longer to sprout.
# potato microtubers [2] = test: sprouting of microtubers cold-stored 3 weeks, dormancy-breaking agents incl. anti-ABA; settings: evaluated at 2 weeks
# Description: Microtubers (200–600 mg) were cold-stored for 3 wk prior to the experiment. Seven microtubers were used per treatment. Treatments included 24 h soaks in anti-ABA or GA3 (500 and 250 mg l^−1, respectively) applied alone or in combination, GA3 (500 mg l^−1 in combination with 100% signal solution, and water. Bromoethane (0.2 ml l^−1) and control treatments were also performed. Observations were made after 2 wk in the dark at room temperature (20° C.). Data included number of sprouted microtubers and number of multiple sprouts. Means of sprout number were calculated only from microtubers that had sprouted.
# potato microtubers [3] = test: sprouting and multiple sprouting of microtubers cold-stored 8 wk; settings: Microtuber (CS8W); for Sprouting (number of sprouted tubers): GA3 500 mg l^−1 / 100% signal solution / Bromoethane 0.2 ml l^−1
# Description: as §1
# potato minitubers [4] = test: harvests after 60 d from minitubers forced to break dormancy (greenhouse pots); settings: GA3 500 mg l^−1 / 100% signal solution / BE 0.2 m l^−1; for Mean number of tubers produced per replicate / Mean fresh weight: harvest after 60 d; for Mean number sprouts at planting ± SE: minitubers cold-stored 8 wk, 3 wk after treatment; for Mean fresh weight: tubers per replicate (pot)
# Description: Minitubers (20–35 g) that were cold-stored for 8 wk were given dormancy-releasing treatments including 24 h soaking in GA3 (500 mg l^−1), 100% signal solution, or water. Other treatments included BE (0.2 m l^−1), cutting in half, and the control. […] Five minitubers per treatment were individually planted into 11×12 cm plastic pots in the greenhouse. The potting mixture was 2:1 peat:perlite without fertilizer added. The pots were arranged in a complete randomized design and watered equally every alternate day. Harvest occurred after 60 d and tuber yields (number and fresh weight) were recorded.
# potato microtubers [5] = test: dormancy breaking of potato microtubers cold-stored 8 wk; settings: GA3 500 mgl^−1
# Description: Treatments were carried out on microtubers (200–400 mg) that had been cold-stored for 8 wk to determine their effect on breaking dormancy. Signal solution was used at full strength (100%) or diluted to 20% (as for soybean), 12%, or 6% of full strength. GA3 (500 mg l^−1), water soaking, and control treatments were performed for comparison purposes. Microtuber soaking treatments lasted 24 h and then incubation occurred either in the light (40 μmol m^−2s^−1 cool-white fluorescent) or in the dark. Five microtubers were used in each treatment. Observations for sprouted microtubers were made at 1 and 2 wk.
# One hundred % signal solution was as effective as GA3 (500 mg l^−1) when evaluated after 1 wk with respect to the number of sprouted microtubers. […] One hundred % signal solution induced multiple sprouts and dark incubation favoured sprouting as compared with the light regime after 1 wk of incubation. The exact cause of dark incubation favouring 100% signal solution is not understood.
# potato minitubers [6] = test: GA3 and 100% signal solution, dormancy breaking of minitubers cold-stored 3 weeks
# Description: Minitubers (20–30 g) with 3 wk cold storage treatment were soaked for 24 h in 500 mg l^−1 GA3, 100% signal solution, or a mixture of the two. Another treatment involved successive soaking for 12 h each, in first GA3, and then signal solution. A control treatment without soaking was also performed. Eight minitubers were used per treatment which were applied at room temperature (20° C.). […] were observed after 2 wk and the number of sprouted minitubers and the number with multiple sprouts were counted.
# [7] = system: alfalfa (Medicago sativa); test: germination of alfalfa seeds (petri plate); settings: after 24 h of treatment
# Description: Following the methods described above, the LCO most abundantly produced by R. meliloti (Nod Rm-V(C16:2, S)) was isolated and tested on alfalfa (Medicago sativa) seeds. Briefly, 10 seeds were placed in a disk of filter paper on a petri plate. The filter paper was wetted with 5 ml of the appropriate LCO solution. Data were taken at 12 hour intervals upon the radicle (an embryonic root). The number of seed with an emerged radicle were counted. Each treatment was repeated four times. The data presented in table 9 indicate a clear acceleration of growth. In this case no standard for HPLC calibration was available, so a relative dilution series was used. […] In each case, a stimulation of seed germination was observed. Of note, Rhizobium leguminosarum produces a large number of LCOs.
# [8] = single agent 24 h soak (GA3 500 mgl^−1 or 100% SS), after 2 wk
Structure (SMILES),"Sprouting (number of sprouted tubers) (potato minitubers [1]; Minituber (CS2W), 1 wk)","Sprouting (number of sprouted tubers) (potato minitubers [1]; Minituber (CS2W), 2 wk)","Sprouting (number of sprouted tubers) (potato minitubers [1]; Minituber (CS2W), 3 wk)","Sprouting (number of sprouted tubers) (potato minitubers [1]; Minituber (CS2W), 4 wk)","Sprouting (number of sprouted tubers) (potato minitubers [1]; Minituber (CS8W), 1 wk)","Sprouting (number of sprouted tubers) (potato minitubers [1]; Minituber (CS8W), 2 wk)","Sprouting (number of sprouted tubers) (potato minitubers [1]; Minituber (CS8W), 3 wk)","number of tubers with multiple sprouts (potato minitubers [1]; Minituber (CS8W), 3 wk)","Sprouting (number of sprouted tubers) (potato minitubers [1]; Minituber (CS8W), 4 wk)","number of tubers with multiple sprouts (potato minitubers [1]; Minituber (CS8W), 4 wk)","Sprouting (number of sprouted tubers) (potato minitubers [1]; Minituber (NCS), 1 wk)","Sprouting (number of sprouted tubers) (potato minitubers [1]; Minituber (NCS), 2 wk)","Sprouting (number of sprouted tubers) (potato minitubers [1]; Minituber (NCS), 3 wk)","Sprouting (number of sprouted tubers) (potato minitubers [1]; Minituber (NCS), 4 wk)",Sprouting (number of sprouted tubers) (potato microtubers [3]; 1 wk),Sprouting (number of sprouted tubers) (potato microtubers [3]; 2 wk),Sprouting (number of sprouted tubers) (potato microtubers [3]; 3 wk),Sprouting (number of sprouted tubers) (potato microtubers [3]; 4 wk),Mean number of tubers produced per replicate (potato minitubers [4]),Mean number sprouts at planting ± SE (potato minitubers [4]),also measured
CCBr [Bromoethane],0,0,0,2/6,3/6,4/6,6/6,(4),6/6,(4),0,0,0,0,2/6,4/6,4/6,6/6,2.0,1.8 ± 0.20,"number of tubers with multiple sprouts (potato minitubers [1]; Minituber (CS8W), 2 wk): (1); number of tubers with multiple sprouts (potato minitubers [1]; Minituber (CS8W), 2 wk, listed as BE): 1/6; Mean No. sprouts ± SE (potato microtubers [2]; Bromoethane (0.2 ml l^−1)): 1.0 ± 0; No. sprouted microtubers (potato microtubers [2]; Bromoethane (0.2 ml l^−1)): 1/7; Mean number sprouts at planting ± SE (potato minitubers [4]; listed as BE): 1.8±0.2; Mean fresh weight (potato minitubers [4]): 14.01 g·days"
"C=C1C[C@]23C[C@@]1(O)CC[C@H]2[C@@]12C=C[C@H](O)[C@@](C)(C(=O)O1)[C@H]2[C@@H]3C(=O)O [GA3, gibberellic acid]",0,0/6 and 0,3/6,5/6,5/6,6/6,6/6,(6),6/6,(6),0,0/6 and 0,3/6,4/6,4/6,5/6,6/6,6/6,3.6,4.2±0.37,"number of tubers with multiple sprouts (potato minitubers [1]; Minituber (CS2W), 4 wk): (2); Mean No. sprouts ± SE (potato microtubers [2]; GA3 500 mgl^−1 24 h): 1.71±0.28; No. sprouted microtubers (potato microtubers [2]; GA3 500 mgl^−1 24 h): 7/7; number of tubers with multiple sprouts (potato microtubers [3]; 3 wk, six tubers per treatment, doses as title): (3); Mean fresh weight (potato minitubers [4]): 11.13 g·days; Mean number of sprouts ± SE (potato microtubers [5]; + light): 2.5 ± 0.5; Number of multiple sprouted microtubers (2 wk) (potato microtubers [5]; + light): 2/5; Number of sprouted microtubers (potato microtubers [5]; + light, 1 wk): 1/5; Number of sprouted microtubers (potato microtubers [5]; + light, 2 wk): 5/5; Mean number of sprouts ± SE (potato microtubers [5]; − light): 2.5 ± 0.3; Number of multiple sprouted microtubers (2 wk) (potato microtubers [5]; − light): 4/5; Number of sprouted microtubers (potato microtubers [5]; − light, 1 wk): 5/5; Number of sprouted microtubers (potato microtubers [5]; − light, 2 wk): 5/5; sprouting (potato minitubers [6]; 24 h soak, GA3 500 mg l^−1 alone or together with 100% signal solution, 2 wk): 100%; Mean number of sprouts ± SE (potato minitubers [6]; [8]): 3.37 ± 0.62; Number of minituber with multiple sprouts (potato minitubers [6]; [8]): 6/8; Number of sprouted minituber (potato minitubers [6]; [8]): 8/8"
"CCCCCC/C=C\CCCCC/C=C/C(=O)N[C@H]1[C@H](O[C@H]2[C@H](O)[C@@H](NC(C)=O)[C@H](O[C@H]3[C@H](O)[C@@H](NC(C)=O)[C@H](O[C@H]4[C@H](O)[C@@H](NC(C)=O)[C@H](O[C@H]5[C@H](O)[C@@H](NC(C)=O)C(O)O[C@@H]5COS(=O)(=O)O)O[C@@H]4CO)O[C@@H]3CO)O[C@@H]2CO)O[C@H](CO)[C@@H](O)[C@@H]1O (stereo partly drawn) [Nod Rm-V(C16:2, S)]",–,–,–,–,–,–,–,–,–,–,–,–,–,–,–,–,–,–,–,–,Percent germination ([7]; 10^−1 dilution): 26.6 ab Percent; Percent germination ([7]; 10^−2 dilution): 26.6 ab Percent; Percent germination ([7]; 10^−3 dilution): 36.6 a Percent
